Data set [1] can be described thus: Metabolism by rat liver microsomes. Type of data set: in vitro ADME. The conditions noted are these: 0.125 mg/mL protein. How it is done:
Preliminary metabolic studies were conducted using isolated liver microsome preparations.
(In general: Liver microsomes are vesicles of endoplasmic reticulum, rich in cytochrome P450 enzymes.)

Data set [2] has as its system rat carageenan footpad edema. Kind of data set: Rat carageenan footpad edema model. Type of data set: in vivo. How it is done:
The first is the rat carageenan footpad model. Maximal edema is obtained in this model 3 hours after carageenan injection.

For a further data set, the target named is T1, COX-1 (Ovis aries, UniProt P05979).
T1 sequence (P05979 25-600): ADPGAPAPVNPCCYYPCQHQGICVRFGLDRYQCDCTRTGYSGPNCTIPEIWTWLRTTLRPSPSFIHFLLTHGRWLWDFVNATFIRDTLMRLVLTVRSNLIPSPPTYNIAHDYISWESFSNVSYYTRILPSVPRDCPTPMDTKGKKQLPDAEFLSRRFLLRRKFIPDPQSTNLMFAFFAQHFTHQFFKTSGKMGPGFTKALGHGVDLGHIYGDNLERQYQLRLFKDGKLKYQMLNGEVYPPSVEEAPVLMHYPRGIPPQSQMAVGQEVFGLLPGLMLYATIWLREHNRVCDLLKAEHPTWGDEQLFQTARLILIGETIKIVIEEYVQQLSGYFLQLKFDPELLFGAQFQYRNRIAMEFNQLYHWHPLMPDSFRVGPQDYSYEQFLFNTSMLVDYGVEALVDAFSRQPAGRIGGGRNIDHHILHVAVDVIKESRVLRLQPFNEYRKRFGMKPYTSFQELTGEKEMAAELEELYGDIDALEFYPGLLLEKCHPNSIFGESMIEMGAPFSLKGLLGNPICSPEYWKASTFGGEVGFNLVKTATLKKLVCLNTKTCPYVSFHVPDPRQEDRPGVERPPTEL
In words: Inhibition of COX-1 by NSAID derivatives (species not stated). It counts as biochemical. How it is done:
(§1) While the TLC assay described above provides considerable information, it is labor-intensive for screening large numbers of candidate NSAID derivatives. Accordingly, as an alternative, a simplified assay can be used. Incubation conditions can be essentially as described above, except all candidate derivatives are first screened at a concentration of 1 mM with a preincubation time of 30 minutes. The substrate need not be radiolabeled, and the reaction can be stopped by the addition of 2 μL of formic acid. Product formation can be quantitated by enzyme-linked immunosorbent assay (ELISA) using commercially available kits. […] Other in vitro assay methods for screening NSAID derivatives for activity (e.g., selectivity for the COX-2 enzyme) can also be used by the skilled artisan.

For data set [3] the following is noted: rat, in vivo.
In data set [4] the target is T2, COX-1 activity in uninduced macrophages (Mus musculus, UniProt P22437).
T2 construct: endogenous in cells
T2 sequence (P22437 27-602): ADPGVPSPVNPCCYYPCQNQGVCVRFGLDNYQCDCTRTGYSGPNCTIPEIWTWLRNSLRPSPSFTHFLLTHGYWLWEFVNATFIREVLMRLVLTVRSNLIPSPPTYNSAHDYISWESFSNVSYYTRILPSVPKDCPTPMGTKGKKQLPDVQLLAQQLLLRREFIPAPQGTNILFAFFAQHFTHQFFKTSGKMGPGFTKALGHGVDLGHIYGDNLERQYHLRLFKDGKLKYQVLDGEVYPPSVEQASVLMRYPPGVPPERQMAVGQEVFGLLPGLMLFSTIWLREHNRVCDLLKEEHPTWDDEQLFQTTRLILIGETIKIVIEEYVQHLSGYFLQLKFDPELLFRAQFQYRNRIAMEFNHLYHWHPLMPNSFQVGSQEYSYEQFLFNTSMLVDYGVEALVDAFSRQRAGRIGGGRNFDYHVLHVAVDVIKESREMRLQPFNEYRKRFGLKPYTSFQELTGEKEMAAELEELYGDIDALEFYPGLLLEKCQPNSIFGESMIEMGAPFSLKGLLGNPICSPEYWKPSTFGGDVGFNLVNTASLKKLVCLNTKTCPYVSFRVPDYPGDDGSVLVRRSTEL
Kind of data set: Inhibition of COX-1 activity in uninduced macrophages. Type of data set: cell-based, murine.

In a further data set the target is T3, COX-2 (Homo sapiens, UniProt P35354).
T3 sequence (P35354 18-604): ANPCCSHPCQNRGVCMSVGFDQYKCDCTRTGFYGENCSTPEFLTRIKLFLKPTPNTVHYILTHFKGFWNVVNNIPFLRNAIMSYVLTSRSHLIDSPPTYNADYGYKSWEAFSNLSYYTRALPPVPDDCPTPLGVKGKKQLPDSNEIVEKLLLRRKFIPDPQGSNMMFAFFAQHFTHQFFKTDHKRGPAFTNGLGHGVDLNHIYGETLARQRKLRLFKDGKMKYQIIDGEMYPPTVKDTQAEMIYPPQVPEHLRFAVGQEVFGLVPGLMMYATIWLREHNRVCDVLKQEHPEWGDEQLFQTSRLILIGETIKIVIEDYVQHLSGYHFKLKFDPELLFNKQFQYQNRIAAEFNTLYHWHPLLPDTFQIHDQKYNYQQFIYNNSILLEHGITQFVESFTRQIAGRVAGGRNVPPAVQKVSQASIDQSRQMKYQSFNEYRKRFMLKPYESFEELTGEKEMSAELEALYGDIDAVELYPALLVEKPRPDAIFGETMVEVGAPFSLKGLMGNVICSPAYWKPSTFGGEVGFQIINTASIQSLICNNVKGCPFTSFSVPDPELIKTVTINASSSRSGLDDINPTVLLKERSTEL
In words: Inhibition of purified COX-2 by NSAID derivatives (species not stated). It counts as biochemical. Conditions: purified enzyme. How it is done:
as §1

The target in data set [5] is T4, COX-2 activity in RAW 264.7 murine macrophage cell line (Mus musculus, UniProt Q05769).
T4 construct: The macrophages were exposed to lipopolysaccharide and γ-interferon to induce COX-2; endogenous in cells
T4 sequence (Q05769 18-604): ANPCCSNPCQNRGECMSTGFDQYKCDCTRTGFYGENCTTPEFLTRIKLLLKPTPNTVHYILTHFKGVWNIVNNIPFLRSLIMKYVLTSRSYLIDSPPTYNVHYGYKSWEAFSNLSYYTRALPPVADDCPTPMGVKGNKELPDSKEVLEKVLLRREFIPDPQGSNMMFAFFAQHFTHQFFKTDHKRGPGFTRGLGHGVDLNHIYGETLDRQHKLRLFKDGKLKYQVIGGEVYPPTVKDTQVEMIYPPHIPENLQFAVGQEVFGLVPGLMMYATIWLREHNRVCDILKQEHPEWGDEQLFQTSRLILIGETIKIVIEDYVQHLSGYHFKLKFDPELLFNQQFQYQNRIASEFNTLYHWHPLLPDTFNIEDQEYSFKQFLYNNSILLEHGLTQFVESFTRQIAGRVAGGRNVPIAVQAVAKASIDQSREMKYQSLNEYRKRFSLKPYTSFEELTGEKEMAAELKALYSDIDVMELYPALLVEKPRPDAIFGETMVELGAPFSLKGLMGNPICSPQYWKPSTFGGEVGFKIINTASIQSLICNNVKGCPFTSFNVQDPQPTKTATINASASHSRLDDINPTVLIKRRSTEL
In words: Inhibition of COX-2 activity (PGD2 synthesis) in activated RAW264.7 macrophages. It counts as cell-based. The conditions noted are these: read-out: IC50 for inhibition of COX-2 activity in RAW 264.7 macrophages. An excerpt:
Thus, NSAID derivatives that are identified as potentially useful in the methods described herein can be further tested using, for example, the RAW264.7 murine macrophage cell line. These cells are readily available (for example, from the American Type Culture Collection, Manassas, Va., United States of America) and are easily cultured in large numbers. They normally express low levels of COX-1 and very low to undetectable levels of COX-2. Upon exposure to bacterial lipopolysaccharide (LPS), however, COX-2 levels increase dramatically over the ensuing 24 hour period, and the cells produce PGD2 and PGE2 from endogenous arachidonic acid stores (generally, ˜1 nmol/10^7 cells total PG formation). After LPS exposure, the addition of exogenous arachidonic acid results in the formation of additional PGD2 and PGE2 as a result of metabolism by the newly synthesized COX-2.
This system provides a number of approaches for testing the inhibitory potency of COX-2-selective ligands (e.g., inhibitors). In general, following LPS activation, cells can be treated for 30 minutes with the desired concentrations of candidate derivative(s) in DMSO. ^14C-arachidonic acid can be added, and the cells can be incubated for 15 minutes at 37° C. Product formation can be assessed following extraction and TLC separation of the culture medium. Alternatively, the effects of candidate derivatives on PG synthesis from endogenous arachidonic acid can be assessed by incubating cells with desired concentrations of candidate derivatives 30 minutes prior to LPS exposure. Following a 24 hour incubation, medium can be collected and extracted, and the amount of PGD2 and/or PGE2 can be assayed by gas chromatography-mass spectrometry, liquid chromatography-mass spectrometry, or ELISA.
Inhibition of COX-2 Activity in Activated RAW264.7. Protocols for COX-2 inhibition in RAW264.7 cells have been previously described (Kalgutkar et al., 1998b). Briefly, cells (6.2×10^6 cells/T25 flask) were activated with lipopolysaccharide (1 μg/mL) and γ-interferon (10 U/mL) in serum-free DMEM for 7 hours and then treated with inhibitor (0-2 μM) for 30 minutes at 37° C. Exogenous arachidonate metabolism was determined by adding [1-^14C]-arachidonate acid (20 μM) for 15 minutes at 37° C. IC50 values are the average of two independent determinations.
The macrophages were exposed to lipopolysaccharide and γ-interferon to induce COX-2 and then treated with several concentrations of Compound 355.

Where only a bound is given, the exact number is not on record here.

The record followed here is patent US20050002859A1, “COX-2-targeted imaging agents” (Vanderbilt University, priority 2003, published 2005).

As for `COc1ccc2c(c1)c(CC(=O)Nc1ccc(F)cc1)c(C)n2C(=O)c1ccc(Cl)cc1` [Compound 18, p-fluorophenyl derivative of indomethacin amide], the “half-life, rat liver microsomes” value in data set [1] turned out to be 1.67 h. Further, in data set [2] (following oral installation), the “anti-inflammatory activity in rat footpad edema assay” value was “anti-inflammatory activity”. This compound also yielded an ED50 in data set [2] (rat carageenan footpad model (Example 14)) of 0.25 mg/kg. This compound also gave an IC50 against COX-1 of over 66 µM. This compound gave a clearance half-life in data set [3] of 4 h. Besides, in data set [3] (po), the half-life in plasma came out at 4 h and the oral bioavailability came to 30%.

For `CCCCC#CCSc1ccccc1OC(=O)CF` [F-APHS], the “concentration up to which COX-1 activity is not inhibited” value in data set [4] was over 32 µM. The IC50 stood at 4 µM against COX-2 and 2.8 µM in data set [5].

One may read the ED50 as the midpoint of the dose-response relation. By IC50 is commonly meant the concentration at which inhibition is half-maximal.
